# Like-named read-outs stand apart in the source and are kept apart here.
# How the values were obtained:
# U87 human glioma cells = assay: MTT colorimetric cell viability assay, U87; format: cell-based; conditions: for Effect on tumour cell viability (MTT test), alone / Effect of CB1 antagonist on inhibition of cell proliferation / Effect of CB2 antagonist on inhibition of cell proliferation / Effect of TRPV1 vanilloid antagonist on inhibition of cell proliferation: U87; for IC50: Homo sapiens, U-87 MG, 24 h, read-out: IC50, drop of mitochondrial oxidative metabolism (MTT test); for Effect of CB1 antagonist on inhibition of cell proliferation: AM 251 (0.5 μM) added; for Effect of CB2 antagonist on inhibition of cell proliferation: SR 144528 (0.5 μM) for CBG, AM630 (0.5 μM) for CBDV; for Effect of TRPV1 vanilloid antagonist on inhibition of cell proliferation: capsazepine (0.625 μM) added
# Description: The human glioma cell line U87-MG was obtained from the American Type Culture Collection (Rockville, USA). Cells were maintained in DMEM supplemented with 10% heat-inactivated foetal bovine serum (Euroclone, Italy), 1% glutamine, 1% antibiotic mixture, 1% sodium pyruvate, 1% non-essential amino acids, at 37° C. in a humidified 5% CO2 atmosphere. Cells were seeded in complete medium. After a 24 h incubation, the medium was replaced by serum-free medium (ITSS medium), consisting of DMEM supplemented with 5 μg/ml insulin, 5 μg/ml transferrin, and 5 […].
# (§1) To determine the effects of the phytocannabinoids upon cell viability, the applicants employed a MTT colorimetric assay ([3-(4,5-dimethyl-2-thiazolyl)-2,5-diphenyl-2H tetrazolium bromide]; Sigma-Aldrich). Briefly, U87 human glioma cells were seeded in a 96-well flat bottom multi-well at a density of 8000 cells/well. After 24 h, cells were treated with THCV, CBDV and CBG and/or receptor antagonists at the indicated concentrations. At the end of the incubation with the drugs, MTT (0.5 mg/ml final concentration) was added to each well and the incubation was then continued for 4 h. The insoluble formazan crystals were solubilized by the addition of 100 μl of 100% dimethyl sulfoxide. The plates were read at 570 nm using an automatic microtiter plate reader.
# U87 cells [1] = assay: Evaluation of apoptosis (propidium iodide flow cytometry), U87; format: cell-based, human; conditions: 24 h
# Description: 3.4×10^5 tumour cells were cultured in 6 well-plates in the presence or absence of CBDV or THCV for 24 h, as described above and the percentage of apoptotic cells on the total cell population (adhering/detached cells) was evaluated. Briefly, cells were collected, washed, and centrifuged at 1300 rpm. They were then fixed in ethanol 70% for at least 30 min at −20° C. After centrifugation, the cell pellet was gently re-suspended in 1 ml of PBS solution containing propidium iodide (PI, 50 μg/ml) and RNAse (20 μg/ml). Cells were analyzed after a minimum of 30 min of incubation in the dark at room temperature, and apoptosis was detected in individual cells using a flow cytometer (equipped with a single 488-nm argon laser; BD Biosciences, San Jose, Calif.) by reduced fluorescence of PI in apoptotic nuclei.
# U87 glioma cells = conditions: Boyden chamber; cited from earlier work
# [2] = tested on: subcutaneously implanted U87 human glioma cells; conditions: nude mice, subcutaneous, 0.5 mg/mouse; cited from earlier work
# [3] = tested on: human breast cell line MDA MB 231; assay: Migration in breast cell line MDA-MB 231; format: cell-based; conditions: MDA-MB 231 breast cell line
# T98G glioma cells [4] = assay: Matrigel invasion assay, T98G; format: cell-based, human
# Description: (§2) BD BioCoat matrigel invasion chambers (BD, USA) were used to examine the ability of U87 cells to penetrate the extracellular matrix. U87 cells (2.5×10^4 cells) were re-suspended in 500 μl of serum-free medium in the presence of the phytocannabinoids, and added to the upper chamber. The lower chamber was filled with 0.75 ml of complete medium as chemo-attractant. Cells were then incubated for 22 h at 37° C. After removal of cells on the upper surface of the membrane, cells on the lower surface were fixed in 100% methanol and stained with Diff-Quick stain (Medion Diagnostics, USA). Sixteen fields of cells were counted randomly in each well under a light microscope at 200× magnification. Data was expressed as the percentage of invasive cells as compared with the control. All the experiments were performed in triplicates and results were expressed as mean±SEM of three independent experiments.
# (§3) In a further set of experiments, Examples 8-10 the compounds were evaluated on a different cell line, T98G, which was obtained from the American Type Culture Collection (Rockville, USA). The protocols employed were as described above.
# The matrigel invasion assay was carried out to further examine the effect of the CBDV on the invasiveness of T98G glioma cells.
# T98G cell line = assay: MTT test, T98G; format: cell-based, human; conditions: for Effect of pre-treatment with CB1 antagonist on anti-proliferative effect: AM251; for Effect of pre-treatment with CB2 antagonist on anti-proliferative effect: AM630
# Description: as §1, §3
# U87 cells [5] = assay: Matrigel cell invasion assay, U87; format: cell-based, human
# Description: as §2
# The matrigel invasion assay was carried out to further examine the effect of THCV on the invasiveness on U87 glioma cells.
# T98G cell = assay: Trypan Blue test, T98G; format: cell-based, human
# Description: To further confirm the ability of CBDV, CBG and THCV to inhibit T98G cell growth, a Trypan Blue test was also conducted.
# U87-MG cells = assay: Cell motility assay (Boyden chamber), U87-MG; format: cell-based, human
# Description: (§4) BD BioCoat Control Inserts (BD, USA) were used to examine the ability of U87-MG cells to migrate through an 8.0 micron pore size PET membrane. U87-MG cells (2.5×10^4 cells) were re-suspended in 500 μl of serum-free medium in presence of phytocannabinoids, and added to the upper chamber. The lower chamber was filled with 0.75 ml of complete medium as chemo-attractant. Cells were then incubated for 22 h at 37° C. After removal of cells on the upper surface of the membrane, cells on the lower surface were fixed in 100% methanol and stained with Diff-Quick stain (Medion Diagnostics, USA). Sixteen fields of cells were counted randomly in each well under a light microscope at 200× magnification. Data was expressed as the percentage of migrating cells as compared with the control. All the experiments were performed in triplicates and results were expressed as mean±SEM of three independent experiments.
# The effect of THCV on U87 glioma cells invasion and motility was determined by Boyden chamber assay. […] The effect was even evident at concentrations as low as 0.25 μM.
# T98G glioma cells [6] = assay: Cell migration (Boyden chamber), T98G; format: cell-based, human; conditions: for Inhibition of migration of the cells: irrespective of the concentration used
# Description: as §4, §3
# The effect of CBDV on T98G glioma cells invasion and motility was determined by Boyden chamber assay.
# [7] = tested on: recurrent glioblastoma multiforme; conditions: nine patients, intra-tumoural; 95% confidence interval: 15-33; cited from earlier work
# [8] = Homo sapiens, 24 h, read-out: IC50, drop of mitochondrial oxidative metabolism (MTT test)
compound,measurement,setting,value
"C=C(C)[C@@H]1CCC(C)=C[C@H]1c1c(O)cc(CCCCC)cc1O [CBD, Cannabidiol, reference compound]","Effect on tumour cell viability (MTT test), alone",U87 human glioma cells; 5 μM,ineffective
same,"Effect on tumour cell viability (MTT test), alone",U87 human glioma cells; 9 μM,effective
same,"Apoptosis, alone",U87 cells [1]; 5 μM,did not cause any apoptosis
same,"Apoptosis, alone",U87 cells [1]; 9 μM,significant induction of apoptosis
same,Migration of U87 glioma cells,U87 glioma cells,concentration-dependent inhibition
same,Growth of subcutaneously implanted U87 human glioma cells,[2],significantly inhibited the growth
"C=C(C)[C@@H]1CCC(C)=C[C@H]1c1c(O)cc(CCCCC)c(C(=O)O)c1O [CBDA, Cannabidiolic acid]",Effect on migration,[3],inhibit migration in a statistically significant manner
"C=C(C)[C@@H]1CCC(C)=C[C@H]1c1c(O)cc(CCC)cc1O [CBDV, Cannabidivarin]",IC50,U87 human glioma cells,24.2 µM
same,Effect of CB1 antagonist on inhibition of cell proliferation,U87 human glioma cells,"able to significantly increase the inhibitory action of CBDV on glioma cell growth at 19, 40, and 50 μM concentrations"
same,Effect of CB2 antagonist on inhibition of cell proliferation,U87 human glioma cells,"able to significantly increase the inhibitory action of CBDV on glioma cell growth at 19, 40, and 50 μM concentrations"
same,Effect of TRPV1 vanilloid antagonist on inhibition of cell proliferation,U87 human glioma cells,a significant increase of the inhibitory action of CBDV was seen only at 14 and 19 μM
same,Inhibition of cell invasiveness,T98G glioma cells [4]; concentration range from 0.5 to 12 μM,about 70%
same,IC50,T98G cell line; 24 h after cannabinoid exposure,27 µM
same,Effect of pre-treatment with CB1 antagonist on anti-proliferative effect,T98G cell line,exhibited some sensitivity
same,Effect of pre-treatment with CB2 antagonist on anti-proliferative effect,T98G cell line,exhibited some sensitivity
same,IC50,"T98G cell line; Homo sapiens, 24 h, read-out: IC50, drop of mitochondrial oxidative metabolism (MTT test), T98G, 24 h after cannabinoid exposure",27.1 µM
same,Concentration as low as which the anti-invasive effect was evident,U87 cells [5]; U87,1 µM
same,"Decrease of the number of invading cells, average effect","U87 cells [5]; U87, across the concentrations tested",45%
same,"Cell viability, Trypan Blue test",T98G cell,inhibited cells viability in the same dose range as for MTT test
same,Concentration as low as which the anti-migratory effect was evident,U87-MG cells,1 µM
same,Effect on cell migration,U87-MG cells,significantly inhibited the migration
same,Concentration as low as which the anti-migratory effect was evident,T98G glioma cells [6],0.5 µM
same,Inhibition of migration of the cells,T98G glioma cells [6],55%
"CCCCCc1cc(O)c(C/C=C(\C)CCC=C(C)C)c(O)c1 [CBG, Cannabigerol]",IC50,U87 human glioma cells,12.1 µM
same,Effect of CB1 antagonist on inhibition of cell proliferation,U87 human glioma cells,able to antagonize the inhibitory action of the phytocannabinoid on glioma cells growth only at 19 and 25 μM concentrations
same,Effect of CB2 antagonist on inhibition of cell proliferation,U87 human glioma cells,failed to antagonize the anti-proliferative effect
same,Effect of TRPV1 vanilloid antagonist on inhibition of cell proliferation,U87 human glioma cells,failed to antagonize the anti-proliferative effect
same,Effect on cell invasion,T98G glioma cells [4],did not inhibit
same,Effect of pre-treatment with CB1 antagonist on anti-proliferative effect,T98G cell line,unaffected
same,Effect of pre-treatment with CB2 antagonist on anti-proliferative effect,T98G cell line,unaffected
same,IC50,T98G cell line; [8],17.3 µM
same,Effect on cell invasion,U87 cells [5]; U87,did not inhibit
same,"Cell viability, Trypan Blue test",T98G cell,inhibited cells viability in the same dose range as for MTT test
same,Effect on cell migration,U87-MG cells,did not inhibit
same,Effect on cell migration,T98G glioma cells [6],did not inhibit
"CCCCCc1cc(O)c2c(c1)OC(C)(C)[C@@H]1CCC(C)=C[C@@H]21 [THC, Tetrahydrocannabinol]",Median survival from the beginning of cannabinoid administration,[7],24 weeks
"CCCCCc1cc2c(c(O)c1C(=O)O)[C@@H]1C=C(C)CC[C@H]1C(C)(C)O2 [THCA, Tetrahydrocannabinolic acid]",Effect on migration,[3],inhibit migration in a statistically significant manner
"CCCc1cc(O)c2c(c1)OC(C)(C)[C@@H]1CCC(C)=C[C@@H]21 [THCV, Tetrahydrocannabivarin]",IC50,U87 human glioma cells,13.8 µM
same,"Effect on tumour cell viability (MTT test), alone",U87 human glioma cells; 5 μM,ineffective
same,"Effect on tumour cell viability (MTT test), alone",U87 human glioma cells; 10 μM,effective
same,Effect of CB1 antagonist on inhibition of cell proliferation,U87 human glioma cells,none of the antagonists was effective in reversing and/or potentiating the effect
same,Effect of CB2 antagonist on inhibition of cell proliferation,U87 human glioma cells,none of the antagonists was effective in reversing and/or potentiating the effect
same,Effect of TRPV1 vanilloid antagonist on inhibition of cell proliferation,U87 human glioma cells,none of the antagonists was effective in reversing and/or potentiating the effect
same,"Apoptosis, alone",U87 cells [1]; 5 μM,did not cause any apoptosis
same,"Apoptosis, alone",U87 cells [1]; 10 μM,did not cause any apoptosis
same,Effect on cell invasion,T98G glioma cells [4],U-shaped dose-response curve
same,Effect of pre-treatment with CB1 antagonist on anti-proliferative effect,T98G cell line,unaffected
same,Effect of pre-treatment with CB2 antagonist on anti-proliferative effect,T98G cell line,unaffected
same,IC50,T98G cell line; [8],16.1 µM
same,inhibition at 5 µM,"U87 cells [5]; Homo sapiens, U-87 MG, read-out: Inhibition of cell invasiveness",55%
same,Inhibition of cell invasiveness,"U87 cells [5]; U87, 0.5 and 1 μM",about 35%
same,"Cell viability, Trypan Blue test",T98G cell,inhibited cells viability in the same dose range as for MTT test
same,Concentration as low as which the anti-migratory effect was evident,U87-MG cells,0.25 µM
same,Inhibition of migration of the cells,"U87-MG cells; irrespectively of the concentrations used, 22 h",55%
same,Inhibition of migration of the cells,T98G glioma cells [6],about 50%

# Reference: patent US20140221469A1, “PHYTOCANNABINOIDS FOR USE IN THE TREATMENT OF CANCER” (Otsuka Pharmaceutical Co., Ltd., priority 2011, published 2014)
